Measurements taken from patent US11529354B2, “Methods and compositions for the treatment of tuberculosis” (PRESIDENT AND FELLOWS OF HARVARD COLLEGE, priority 2017, dated 2022).
Values after ≈ are worked out from the molar mass of the structure shown. Where two headings read alike, the source gives them in different places.

What was measured:
[1] = tested on: Bacillus Calmette-Guérin (BCG); test: organism not typed; assay type: cell-based, Mycobacterium bovis
M. xenopi BZ-23 = test: MIC on closely related bacteria: M. xenopi; assay type: cell-based; conditions: Mycobacterium xenopi, BZ23
MTB H37Rv = test: microbe, parasite or virus in culture; assay type: cell-based, Mycobacterium tuberculosis; conditions: susceptible H37Rv
M. avium A209 = test: MIC on closely related bacteria: M. avium; assay type: cell-based; conditions: Mycobacterium avium
M. abscessus BZ-24 = test: MIC on closely related bacteria: M. abscessus; assay type: cell-based; conditions: Mycobacteroides abscessus, BZ24
M. terrae BZ-15 = test: MIC on closely related bacteria: M. terrae; assay type: cell-based; conditions: Mycolicibacter terrae, BZ15
M. cheelonae BZ-4 = test: MIC on closely related bacteria: M. cheelonae; assay type: cell-based
M. scrofulaceum BZ-20 = test: MIC on closely related bacteria: M. scrofulaceum; assay type: cell-based; conditions: Mycobacterium scrofulaceum, BZ20
MTT cytotoxicity assay = conditions: human
[2] = tested on: clinical Mycobacterium tuberculosis strains (HsRs: 90#, 140#, 74#); test: microbe, parasite or virus in culture; assay type: cell-based
in vitro = conditions: human
[3] = tested on: intracellular BCG within macrophages; assay type: cell-based, Mycobacterium bovis
[4] = tested on: GFP-expressing BCG in infected THP-1 cells; test: microbe, parasite or virus in culture; assay type: cell-based; conditions: Mycobacterium tuberculosis variant bovis BCG, THP-1, read-out: IC50, growth of GFP-expressing BCG in infected THP-1 cells
[5] = read-out: MIC from in vitro validation
[6] = read-out: MIC from in vitro validation on BCG

For O=[N+]([O-])c1ccccc1CNCCc1c[nH]c2ccccc12 [CAS 355816-45-4, 2-(1H-indol-3-yl)-N-(2-nitrobenzyl)ethanamine], the MIC [1, 5] was 128 µg/mL (≈ 433 µM).

With O=c1/c(=C/c2cc(Br)ccc2F)sc2nc3ccccc3n12 [CAS 292169-72-3, (Z)-2-(5-Bromo-2-fluorobenzylidene)benzo[4,5]imidazo[2,1-b]thiazol-3(2H)-one] the MIC [1, 5] was greater than 128 µg/mL.

O=C(Nc1cccc(-c2nc3ccccc3[nH]2)c1)c1ccc(C(=O)Nc2cccc(-c3nc4ccccc4[nH]3)c2)cc1 [NSC 61610, 1-N,4-N-bis[3-(1H-benzimidazol-2-yl)phenyl]benzene-1,4-dicarboxamide] gave an MIC [1, 6] of 40 µg/mL (≈ 72.9 µM).

CO[C@@H]1[C@@H](OC(=O)c2ccc(C)[nH]2)[C@@H](O)[C@H](Oc2ccc3c(O)c(NC(=O)c4ccc(O)c(CC=C(C)C)c4)c(=O)oc3c2Cl)OC1(C)C [NSC 227186, [(3R,4S,5R,6S)-6-[8-chloro-4-hydroxy-3-[[4-hydroxy-3-(3-methylbut-2-enyl)benzoyl]amino]-2-oxochromen-7-yl]oxy-5-hydroxy-3-methoxy-2,2-dimethyloxan-4-yl]5-methyl-1H-pyrrole-2-carboxylate] showed an MIC (M. xenopi BZ-23) of 80 µg/mL (≈ 115 µM), an MIC (MTB H37Rv; Mycobacterium tuberculosis, Table 4, read-out: MIC) of less than 0.625 µg/mL and an MIC (M. avium A209) of 80 µg/mL (≈ 115 µM). For the same compound, the “performance on BCG compared with isoniazid and rifampicin” value [1] was “performed at levels comparable of isoniazid and rifampicin”, the MIC [1, 6] was 0.625 µg/mL (≈ 0.897 µM) and the MIC (M. abscessus BZ-24) was 40 µg/mL (≈ 57.4 µM). The MIC (M. terrae BZ-15) was greater than 80 µg/mL, the MIC (M. cheelonae BZ-4) was 40 µg/mL (≈ 57.4 µM) and the MIC (M. scrofulaceum BZ-20) was 80 µg/mL (≈ 115 µM).

In the case of CO[C@H]1/C=C/O[C@@]2(C)Oc3c(C)c(O)c4c(O)c(c(/C=N/N5CCN(C)CC5)c(O)c4c3C2=O)NC(=O)/C(C)=C\C=C\[C@H](C)[C@H](O)[C@@H](C)[C@@H](O)[C@@H](C)[C@H](OC(C)=O)[C@@H]1C [Rifampicin, reference compound], the IC50 (MTT cytotoxicity assay) is reported as 1 µg/mL (≈ 1.22 µM).

In the case of O=[N+]([O-])c1cccc(CNC2CCCc3ccccc32)c1 (centres unmarked) [CAS 353779-33-6, N-(3-nitrobenzyl)-1,2,3,4-tetrahydronaphthalen-1-amine], the MIC [1, 5] is reported as 128 µg/mL (≈ 453 µM).

Compound O=C(O)C1C2C(=O)N(Cc3ccccn3)C[C@]23C=C[C@H]1O3 (stereo partly drawn) [CAS 1164528-69-1, (3aS,6R)-1-oxo-2-(pyridin-2-ylmethyl)-1,2,3,6,7,7a-hexahydro-3a,6-epoxyisoindole-7-carboxylic acid] has an MIC [1, 5] greater than 128 µg/mL.

COc1ccc(N2COc3ccc4cc(Br)ccc4c3C2)cc1 [CAS 376374-34-4, 8-bromo-2-(4-methoxyphenyl)-2,3-dihydro-1H-naphtho[1,2-e][1,3]oxazine] showed an MIC [1, 5] of 128 µg/mL (≈ 346 µM).

O=C(Nc1ccc(Oc2ccc(NC(=O)Nc3ccccc3Cl)cc2)cc1)Nc1ccccc1Cl [NSC 80731, 1-(2-chlorophenyl)-3-[4-[4-[(2-chlorophenyl)carbamoylamino]phenoxy]phenyl]urea] showed an MIC [1, 6] of 80 µg/mL (≈ 158 µM).

For O=[N+]([O-])c1ccc(C2CC(c3ccccc3)=Nc3ccccc3S2)cc1 (centres unmarked) [NSC 270738, 2-(4-nitrophenyl)-4-phenyl-2,3-dihydro-1,5-benzothiazepine], the MIC [1, 6] was 5 µg/mL (≈ 13.9 µM).

Cc1ccc2[nH]c3c(c2c1)CCCC3NCc1ccccc1 (centres unmarked) [CAS 118498-98-9, N-benzyl-6-methyl-2,3,4,9-tetrahydro-1H-carbazol-1-amine] gave an MIC [2] of 6.4 µg/mL (≈ 22 µM), an MIC ([2]; strain 74#, HsRs, read-out: MIC) of 6.4 µg/mL (≈ 22 µM) and an MIC ([2]; strain 140#, HsRs, read-out: MIC) of 3.2 µg/mL (≈ 11 µM). For the same compound, the MIC [1, 5] was 32 µg/mL (≈ 110 µM).

For c1ccc2cc(OCCOCCOc3ccc4ccccc4c3)ccc2c1 [NSC 37219, 2-[2-(2-naphthalen-2-yloxyethoxy)ethoxy]naphthalene], the MIC [1, 6] was 80 µg/mL (≈ 223 µM).

In the case of Cn1ccc(=Nc2ccc(NC(=O)c3ccc(N=c4ccn(C)c5ccc([N+](=O)[O-])cc45)cc3)cc2)cc1 [NSC 260594, 4-[(1-methyl-6-nitroquinolin-4-ylidene)amino]-N-[4-[(1-methylpyridin-4-ylidene)amino]phenyl]benzamide], the MIC (M. xenopi BZ-23) is reported as greater than 80 µg/mL, the IC50 (in vitro) is reported as 7.5 µg/mL (≈ 14.9 µM) and the MIC (MTB H37Rv; Mycobacterium tuberculosis, Table 7 and text, read-out: MIC) is reported as less than 0.625 µg/mL. For the same compound, the MIC (MTB H37Rv; Table 4) was less than 0.625 µg/mL, the MIC (MTB H37Rv; Table 7 and text) was less than 0.625 µg/mL and the “intracellular anti-TB activity against BCG” value [3] was “time- and concentration-dependent anti-TB activity”. The MIC (M. avium A209) was 1.25 µg/mL (≈ 2.48 µM), the IC50 [4] was 7.8 µg/mL (≈ 15.5 µM) and the “performance on BCG compared with isoniazid and rifampicin” value [1] was “performed at levels comparable of isoniazid and rifampicin”. The MIC [1, 6] was 0.078 µg/mL (≈ 0.155 µM), the MIC (M. abscessus BZ-24) was greater than 80 µg/mL and the MIC (M. terrae BZ-15) was 2.5 µg/mL (≈ 4.95 µM). For the same compound, the MIC (M. cheelonae BZ-4) was greater than 80 µg/mL and the MIC (M. scrofulaceum BZ-20) was greater than 80 µg/mL.

For O=C1CC(c2cccc(O)c2)Nc2ccc3ccccc3c21 (centres unmarked) [CAS 333759-52-7, 3-(3-hydroxyphenyl)-3,4-dihydrobenzo[f]quinolin-1(2H)-one], the MIC [1, 5] was greater than 128 µg/mL.
